# Experimental data reported in patent publication US11779600B2, “Methods of treating or preventing alzheimer's disease and associated conditions” (CEDARS-SINAI MEDICAL CENTER, priority 2016, dated 2023).
# Tested on: 6E10+-Aβ plaque
# Assay: 6E10+-Aβ plaque burden in ADtg mouse brain sections
# Type: in vivo
# Conditions: same brain sections (FIG. 11C)
# Description: ADtg mice (10 months old) received subcutaneous injections of GA [also known as Cop-1 and Copaxone®; 100 μg in phosphate-buffered saline (PBS)] or PBS alone (control group) twice a week for 1 week and then once a week for 8 weeks. For evaluation of innate immune infiltration to the brain by flow cytometry, 10-month-old ADtg mice received subcutaneous injections of GA ([…] in PBS) or PBS alone twice a week for 1 week and then once a week for 3 weeks. At the end of the study, all mice were anaesthetized and then perfused with ice-cold PBS with 0.5 mM EDTA, after which their organs were collected and analyzed or fixed in 2.5% paraformaldehyde (Sigma-Aldrich), and cryoprotected with 30% sucrose for further histological analysis. CD115^+ monocytes from mice donors were isolated as previously reported (Koronyo et al., Brain: a journal of neurology 2015,138:2399-2422). […] For microscopic analysis, we used a Carl Zeiss Axio Imager Z1 fluorescence microscope equipped with ApoTome (Carl Zeiss MicroImaging, Inc.). […] The number and area (μm^2) of OPN+ cells, Iba1^+CD45^hi cells, GFAP^+ cells, Thio-S^+ amyloid-βplaques and 4G8^+ amyloid-βplaques were determined by examining four to six coronal sections per mouse at 150-μm intervals over an area covering both the hippocampal and cortical (including entorhinal and cingulate cortex) regions. […]
substance,measurement,value
glatiramer acetate [GA],6E10+-Aβ plaque burden compared with PBS controls,substantial reduction
